Assay results reported in patent US20240407361A1, “ORGANOSULFUR COMPOUNDS AS PLANT BIOSTIMULANTS” (AHV International B.V., priority 2021, published 2024).

What was measured:
[1] = tested on: sweet pepper (Capsicum annuum “Ritmico”); assay: Organosulfur compounds on sweet pepper, drip (Example 9); assay type: in vivo; settings: no fruits yet, preliminary
Protocol: (§1) Experimental design. The bio-stimulatory effects of organosulfur compounds was tested on lettuce and sweet pepper (Capsicum annuum “Ritmico”). The tested compounds include di-n-propyl disulfide (GAS 629-19-6), di-n-propyl thiosulfonate (i.e., PTSO, CAS 1113-13-9), di-methyl thiosulfonate (GAS 2949-92-0), and di-phenyl thiosulfonate (Gas 1212-08-4). Di-methyl thiosulfonate and di-phenyl thiosulfonate were ordered from Adrich-Sigma. PTSO was purified as described in example 1. In order to obtain a stable and homogenous emulsion, the compounds were dissolved into an emulsifier solution (table 25) to assure that the crops are supplied with the defined solution. […] As examples herein, “PTSO Composition 5.2” refers to an agricultural composition comprising 5.2% PTSO and further comprises 59% emulsifier (propylene glycol and glyceryl polyethyleneglycol ricinoleate). “PTSO composition 5.2 Yuka” in an agricultural composition comprising 5.2% PTSO and 90.2% Yuka extract. “PTSO composition 5.2 Tween” in an agricultural composition comprising 5.2% PTSO, 30.1% Tween, 30.1% DMSO and 30% water.
(§2) The dosage of the test compounds was standardized on base of the molar dosage and the same molar dosage was administered as PTSO. Emulsions were prepared by adding the required amount of the compounds as indicated in table 25 in 100 ml volumes of 50% tween 80 and 50 ml DMSO. Hereafter, the volumes were supplemented to a final volume of 250 ml with the same mixture and incubation took place at an orbital shaker at 37° C. (30 minutes, 250 rpm).

[2] = tested on: Lettuce Lactuca sativa “volare”; assay: Organosulfur compounds on lettuce, seed drench (Example 9); assay type: in vivo; settings: for Added harvest (weight) per plant compared to control (%) / Root formation (%) compared to control / Relative fresh weight/plant compared to control (%): seed drench, 1000× diluted emulsion; for Root formation (%) compared to control: control = 100; for Relative fresh weight/plant compared to control (%): control = emulsifier solution = 100; for Harvest: Fresh weight/plant: seeds drenched 10 minutes in 1000× diluted emulsion, 21 °C
Protocol: as §1, §2
Before seeding, the seeds of lettuce were drenched into 1000× diluted emulsions as indicated in table 25 and incubated for 10 minutes. Each treatment was performed in 4-fold. In table 26 the growth settings of lettuce and sweet peppers are summarized and in table 27 a summary of the realized growth conditions and crop harvest is presented of lettuce.

Compound | Size increase over control (%) [1] | Added harvest (weight) per plant compared to control (%) [2] | Root formation (%) compared to control [2] | Relative fresh weight/plant compared to control (%) [2] | Harvest: Fresh weight/plant [2]
CSS(C)(=O)=O [Di-methyl thiosulfonate, di-methyl thiosulfonate] | 6.1% | 20% | 115% | 120% | 1.96
O=S(=O)(Sc1ccccc1)c1ccccc1 [Di-phenyl thiosulfonate, di-phenyl thiosulfonate] | 2.8% | 3% | 93.9% | 103% | 1.68
CCCSSCCC [Di-propyl disulfide] | 2.8% | 10% | 109% | 110% | 1.80
CCCSS(=O)(=O)CCC [PTSO, di-n-propyl thiosulfonate] | 4.2% | 13% | 110% | 113% | 1.84
